Test results: patent publication US10807959B2, “WDR5-MLL1 inhibitors and modulators” (Vanderbilt University, priority 2018, dated 2020)

What follows are compounds tested against WDR5 (Homo sapiens (Human), UniProt P61964) (assay: TR-FRET binding assay, displacement of 10mer-Thr-FAM probe from His-tagged WDR5). Conditions: not given.
Protocol: The LanthaScreenTM Elite Tb-anti-HIS Antibody from ThermoFisher Scientific was used for this purpose. […] The ratio of the 520 and 495 signals are then utilized to generate a dose-response curve to calculate an IC50 value. […] WDR[…] tag protein is used at 2 nM.

Ki [nM] | SMILES
0.115 | Cc1cc(C)cc(CNC(=O)c2cc(CNC3=NCCN3)cc(-c3ccnc(C)c3)c2)c1 [Example B90]

Same assay, conditions: Inhibition of WDR5 by TR-FRET assay

SMILES | Ki [nM]
COc1cc(OC)cc(C(C)NC(=O)c2cc(Cn3ccnc3C)cc(-c3ccc(F)cc3OC)n2)c1 (stereo not shown) [Example 158, N-(1-(3,5-dimethoxyphenyl)ethyl)-6-(4-fluoro-2-methoxyphenyl)-4-((2-methyl-1H-imidazol-1-yl)methyl)picolinamide] | 8
Cc1cc(-c2cc(CNC3=NCCN3)cc(C(=O)NCc3cc(F)cc(Cl)c3)c2)ccn1 [Example 16, N-(3-chloro-5-fluorobenzyl)-3-(((4,5-dihydro-1H-imidazol-2-yl)amino)methyl)-5-(2-methylpyridin-4-yl)benzamide] | 0.52
COc1cc(CNC(=O)c2cc(CNC3=NCCN3)cc(-c3cnccc3C)c2)cc(OC)c1 [Example 13, 3-(((4,5-dihydro-1H-imidazol-2-yl)amino)methyl)-N-(3,5-dimethoxybenzyl)-5-(4-methylpyridin-3-yl)benzamide] | 0.53
Cc1cc(-c2cc(CNC3=NCCC3)cc(C(=O)NCc3ccc(Cl)c(C)c3)c2)c(C)cc1F [Example 66, N-(4-Chloro-3-methylbenzyl)-5-(((3,4-dihydro-2H-pyrrol-5-yl)amino)methyl)-4′-fluoro-2′,5′-dimethyl-[1,1′-biphenyl]-3-carboxamide] | 0.38
COc1cc(OC)cc(C(C)NC(=O)c2cc(CNC3=NC(=O)CN3C)cc(-c3ccc(F)nc3C)c2)c1 (stereo not shown) [Example 44, N-(1-(3,5-dimethoxyphenyl)ethyl)-3-(6-fluoro-2-methylpyridin-3-yl)-5-(((1-methyl-4-oxo-4,5-dihydro-1H-imidazol-2-yl)amino)methyl)benzamide] | 17
COc1ccnc(CNC(=O)c2cc(CNC3=NCCN3)cc(-c3ccc(F)cc3C(F)(F)F)c2)c1 [Example 47, 5-(((4,5-dihydro-1H-imidazol-2-yl)amino)methyl)-4′-fluoro-N-((4-methoxypyridin-2-yl)methyl)-2′-(trifluoromethyl)-[1,1′-biphenyl]-3-carboxamide] | < 0.1
COc1cc(CNC(=O)c2cc(CNC3=NCCN3)cc(-c3ccc(F)nc3C)n2)cc(OC)c1 [Example 78, 4-(((4,5-Dihydro-1H-imidazol-2-yl)amino)methyl)-N-(3,5-dimethoxybenzyl)-6′-fluoro-2′-methyl-[2,3′-bipyridine]-6-carboxamide] | 0.72
Cc1cnc(F)c(-c2cc(CNC3=NCCN3)cc(C(=O)NCc3cc(Cl)ccn3)c2)c1 [Example 38, N-((4-chloropyridin-2-yl)methyl)-3-(((4,5-dihydro-1H-imidazol-2-yl)amino)methyl)-5-(2-fluoro-5-methylpyridin-3-yl)benzamide] | 0.26
Cc1cnc(F)c(-c2cc(CNC3=NCCN3)cc(C(=O)NCc3ccc(Cl)c(C)c3)c2)c1 [Example 42, N-(4-chloro-3-methylbenzyl)-3-(((4,5-dihydro-1H-imidazol-2-yl)amino)methyl)-5-(2-fluoro-5-methylpyridin-3-yl)benzamide] | < 0.1
COc1ccnc(CNC(=O)c2cc(CNC3=NCCN3)cc(-c3ccc(F)cc3OC)c2)c1 [Example 49, 5-(((4,5-Dihydro-1H-imidazol-2-yl)amino)methyl)-4′-fluoro-2′-methoxy-N-((4-methoxypyridin-2-yl)methyl)-[1,1′-biphenyl]-3-carboxamide] | 0.3
COc1cc(CNC(=O)c2cc(CNC(=N)N)cc(-c3ccnc(C)c3)c2)cc(OC)c1 [Example 99, N-(3,5-Dimethoxybenzyl)-3-(guanidinomethyl)-5-(2-methylpyridin-4-yl)benzamide] | 1.1
COc1cc(OC)cc(C(C)NC(=O)c2cc(CNC3=NCCN3)cc(-c3ccc(F)cc3C)c2)c1 (racemic) [Example 1, (±)-5-(((4,5-dihydro-1H-imidazol-2-yl)amino)methyl)-N-(1-(3,5-dimethoxyphenyl)ethyl)-4′-fluoro-2′-methyl-[1,1′-biphenyl]-3-carboxamide] | 0.46
